# Target: T1, Receptor tyrosine-protein kinase erbB-2 (Homo sapiens, UniProt P04626)
# Assay: Inhibition of HER2 (unknown origin)
# Conditions: not given
# T1 sequence (P04626 whole entry): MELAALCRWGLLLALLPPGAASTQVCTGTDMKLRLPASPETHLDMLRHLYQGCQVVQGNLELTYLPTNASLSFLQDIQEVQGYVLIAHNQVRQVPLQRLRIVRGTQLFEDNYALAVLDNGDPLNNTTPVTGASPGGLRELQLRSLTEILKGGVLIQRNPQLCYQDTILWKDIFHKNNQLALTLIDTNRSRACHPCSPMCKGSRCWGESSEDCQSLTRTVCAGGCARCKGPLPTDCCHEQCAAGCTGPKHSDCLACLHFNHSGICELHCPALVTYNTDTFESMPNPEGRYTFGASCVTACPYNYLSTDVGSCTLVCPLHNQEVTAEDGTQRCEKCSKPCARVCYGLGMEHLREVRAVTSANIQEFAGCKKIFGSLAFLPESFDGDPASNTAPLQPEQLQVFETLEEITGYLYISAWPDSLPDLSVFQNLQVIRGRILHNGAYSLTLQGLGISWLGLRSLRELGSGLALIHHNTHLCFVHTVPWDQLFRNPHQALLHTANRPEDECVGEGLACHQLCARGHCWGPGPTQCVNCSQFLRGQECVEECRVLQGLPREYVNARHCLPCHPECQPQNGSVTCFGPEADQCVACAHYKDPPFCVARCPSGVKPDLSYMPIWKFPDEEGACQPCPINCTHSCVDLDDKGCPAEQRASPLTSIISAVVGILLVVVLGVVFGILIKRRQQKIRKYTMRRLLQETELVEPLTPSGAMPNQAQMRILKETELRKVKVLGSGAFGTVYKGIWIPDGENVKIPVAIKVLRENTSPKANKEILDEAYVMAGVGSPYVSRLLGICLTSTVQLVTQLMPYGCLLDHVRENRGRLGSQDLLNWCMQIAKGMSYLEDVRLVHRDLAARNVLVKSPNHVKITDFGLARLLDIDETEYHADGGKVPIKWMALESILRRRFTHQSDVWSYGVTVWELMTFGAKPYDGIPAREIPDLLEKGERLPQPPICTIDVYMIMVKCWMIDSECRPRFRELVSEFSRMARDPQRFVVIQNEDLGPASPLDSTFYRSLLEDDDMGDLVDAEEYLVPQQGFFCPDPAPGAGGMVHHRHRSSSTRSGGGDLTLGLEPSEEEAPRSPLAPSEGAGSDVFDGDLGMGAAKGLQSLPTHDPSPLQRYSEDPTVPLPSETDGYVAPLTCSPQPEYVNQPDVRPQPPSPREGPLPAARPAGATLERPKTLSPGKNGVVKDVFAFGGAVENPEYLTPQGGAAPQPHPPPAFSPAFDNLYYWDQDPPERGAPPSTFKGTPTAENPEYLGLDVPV
row,IC50 [nM],Structure (SMILES)
1,6.9,Cc1cc(Nc2ncnc3ccc(NC4=NC(C)(C)CO4)cc23)ccc1Oc1ccn2ncnc2c1 [TUCATINIB]
2,4.43,CCOc1cc2ncc(C#N)c(Nc3ccc(OCc4ccccn4)c(Cl)c3)c2cc1NC(=O)/C=C/[C@H]1CCCN1C [PYROTINIB]

# System: NUGC-4
# Assay: Antiproliferative activity against human NUGC-4 cells assessed as cell growth inhibition incubated for 72 hrs by Celltiter-Glo assay
# Type: functional, cell-based
# Conditions: NUGC-4, 72 h
row,Structure (SMILES),IC50 [nM]
1,CCOc1cc2ncc(C#N)c(Nc3ccc(OCc4ccccn4)c(Cl)c3)c2cc1NC(=O)/C=C/[C@H]1CCCN1C [PYROTINIB],60.8

# System: NCI-H441
# Assay: Antiproliferative activity against human NCI-H441 cells assessed as cell growth inhibition incubated for 72 hrs by Celltiter-Glo assay
# Type: functional, cell-based
# Conditions: NCI-H441, 72 h
row,IC50 [nM],Structure (SMILES)
1,1890,CCOc1cc2ncc(C#N)c(Nc3ccc(OCc4ccccn4)c(Cl)c3)c2cc1NC(=O)/C=C/[C@H]1CCCN1C [PYROTINIB]

# System: ES-2
# Assay: Antiproliferative activity against human ES2 cells assessed as cell growth inhibition incubated for 72 hrs by Celltiter-Glo assay
# Type: functional, cell-based
# Conditions: ES-2, 72 h
row,Structure (SMILES),IC50 [nM]
1,CCOc1cc2ncc(C#N)c(Nc3ccc(OCc4ccccn4)c(Cl)c3)c2cc1NC(=O)/C=C/[C@H]1CCCN1C [PYROTINIB],778

# Target: T1, Receptor tyrosine-protein kinase erbB-2
# Assay: Inhibition of wild type human GST-tagged HER2 (676 to end residues) expressed in baculovirus infected Sf9 cells incubated for 30 mins in presence of ATP by HTRF analysis
# Conditions: not given
row,IC50 [nM],Structure (SMILES)
1,9.07,CCOc1cc2ncc(C#N)c(Nc3ccc(OCc4ccccn4)c(Cl)c3)c2cc1NC(=O)/C=C/[C@H]1CCCN1C [PYROTINIB]

# System: BT-474
# Assay: Antiproliferative activity against human BT-474 cells assessed as inhibition of cell growth incubated for 72 hrs by Celltiter-Glo assay
# Type: functional, cell-based
# Conditions: BT-474, 72 h
row,IC50 [nM],Structure (SMILES)
1,3.97,CCOc1cc2ncc(C#N)c(Nc3ccc(OCc4ccccn4)c(Cl)c3)c2cc1NC(=O)/C=C/[C@H]1CCCN1C [PYROTINIB]

# System: NCI-N87
# Assay: Antiproliferative activity against human NCI-N87 cells assessed as inhibition of cell growth incubated for 72 hrs by Celltiter-Glo assay
# Type: functional, cell-based
# Conditions: NCI-N87, 72 h
row,Structure (SMILES),IC50 [nM]
1,CCOc1cc2ncc(C#N)c(Nc3ccc(OCc4ccccn4)c(Cl)c3)c2cc1NC(=O)/C=C/[C@H]1CCCN1C [PYROTINIB],0.85

# System: MFE-280
# Assay: Antiproliferative activity against human MFE-280 cells assessed as cell growth inhibition incubated for 72 hrs by Celltiter-Glo assay
# Type: functional, cell-based
# Conditions: MFE-280, 72 h
row,Structure (SMILES),IC50 [nM]
1,CCOc1cc2ncc(C#N)c(Nc3ccc(OCc4ccccn4)c(Cl)c3)c2cc1NC(=O)/C=C/[C@H]1CCCN1C [PYROTINIB],1560

# System: not listed separately
# Assay: Antiproliferative activity against human KM12-Luc cells assessed as cell growth inhibition incubated for 72 hrs by Celltiter-Glo assay
# Type: functional, cell-based
# Conditions: not given
row,Structure (SMILES),IC50 [nM]
1,CCOc1cc2ncc(C#N)c(Nc3ccc(OCc4ccccn4)c(Cl)c3)c2cc1NC(=O)/C=C/[C@H]1CCCN1C [PYROTINIB],1690

# System: MDA-MB-468
# Assay: Antiproliferative activity against human MDA-MB-468 cells overexpressing wild type EGFR assessed as cell growth inhibition incubated for 72 hrs by Celltiter-Glo assay
# Type: functional, cell-based
# Conditions: MDA-MB-468, 72 h
row,IC50 [nM],Structure (SMILES)
1,659,CCOc1cc2ncc(C#N)c(Nc3ccc(OCc4ccccn4)c(Cl)c3)c2cc1NC(=O)/C=C/[C@H]1CCCN1C [PYROTINIB]

# System: SK-BR-3
# Assay: Antiproliferative activity against human SK-BR-3 cells overexpressing wild type HER2 assessed as cell growth inhibition incubated for 72 hrs by Celltiter-Glo assay
# Type: functional, cell-based
# Conditions: SK-BR-3, 72 h
row,IC50 [nM],Structure (SMILES)
1,14,CCOc1cc2ncc(C#N)c(Nc3ccc(OCc4ccccn4)c(Cl)c3)c2cc1NC(=O)/C=C/[C@H]1CCCN1C [PYROTINIB]

# Target: Receptor tyrosine-protein kinase erbB-2 (Homo sapiens, UniProt P04626, R896C)
# Sequence (P04626 23-1255 R896C limits assumed): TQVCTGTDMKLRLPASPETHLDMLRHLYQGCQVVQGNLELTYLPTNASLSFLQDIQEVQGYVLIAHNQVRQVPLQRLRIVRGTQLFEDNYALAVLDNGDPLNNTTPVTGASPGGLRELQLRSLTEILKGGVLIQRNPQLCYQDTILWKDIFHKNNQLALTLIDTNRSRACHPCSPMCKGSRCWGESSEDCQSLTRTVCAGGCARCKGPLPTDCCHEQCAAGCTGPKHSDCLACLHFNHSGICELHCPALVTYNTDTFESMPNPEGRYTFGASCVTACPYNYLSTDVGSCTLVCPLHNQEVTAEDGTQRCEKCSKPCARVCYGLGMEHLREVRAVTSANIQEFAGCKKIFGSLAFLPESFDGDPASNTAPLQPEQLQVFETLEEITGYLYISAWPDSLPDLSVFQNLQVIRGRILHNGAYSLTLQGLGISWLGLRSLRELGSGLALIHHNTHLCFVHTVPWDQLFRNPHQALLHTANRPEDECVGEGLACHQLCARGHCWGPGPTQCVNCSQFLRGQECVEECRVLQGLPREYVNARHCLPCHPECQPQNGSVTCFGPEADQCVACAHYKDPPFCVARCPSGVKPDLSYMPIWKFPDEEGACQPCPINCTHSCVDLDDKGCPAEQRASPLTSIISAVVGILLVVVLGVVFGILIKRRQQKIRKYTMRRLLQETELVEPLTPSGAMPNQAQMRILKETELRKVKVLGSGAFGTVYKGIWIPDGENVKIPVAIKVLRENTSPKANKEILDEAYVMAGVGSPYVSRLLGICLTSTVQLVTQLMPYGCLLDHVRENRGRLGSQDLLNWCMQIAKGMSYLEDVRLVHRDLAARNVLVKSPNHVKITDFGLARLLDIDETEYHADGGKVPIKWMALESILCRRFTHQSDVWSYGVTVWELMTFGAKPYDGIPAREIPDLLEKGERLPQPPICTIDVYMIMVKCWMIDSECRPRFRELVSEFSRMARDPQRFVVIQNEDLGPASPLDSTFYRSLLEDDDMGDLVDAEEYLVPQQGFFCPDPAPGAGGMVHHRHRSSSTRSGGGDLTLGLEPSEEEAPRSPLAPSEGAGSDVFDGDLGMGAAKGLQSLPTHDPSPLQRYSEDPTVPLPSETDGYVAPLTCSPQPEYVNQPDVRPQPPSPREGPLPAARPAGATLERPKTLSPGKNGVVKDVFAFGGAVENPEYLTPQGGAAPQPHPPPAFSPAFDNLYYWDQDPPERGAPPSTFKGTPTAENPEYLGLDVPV
# Assay: Inhibition of HER2 R896C mutant (unknown origin) incubated for 120 mins in presence of 33P-ATP by P81 ion exchange cellulose chromatography
# Conditions: not given
row,IC50 [nM],Structure (SMILES)
1,2.4,CCOc1cc2ncc(C#N)c(Nc3ccc(OCc4ccccn4)c(Cl)c3)c2cc1NC(=O)/C=C/[C@H]1CCCN1C [PYROTINIB]

# System: COLO-678
# Assay: Antiproliferative activity against human COLO-678 cells assessed as cell growth inhibition incubated for 72 hrs by Celltiter-Glo assay
# Type: functional, cell-based
# Conditions: COLO-678, 72 h
row,IC50 [nM],Structure (SMILES)
1,1840,CCOc1cc2ncc(C#N)c(Nc3ccc(OCc4ccccn4)c(Cl)c3)c2cc1NC(=O)/C=C/[C@H]1CCCN1C [PYROTINIB]

# Target: Receptor tyrosine-protein kinase erbB-2 (Homo sapiens, UniProt P04626, D769H)
# Sequence (P04626 23-1255 D769H limits assumed): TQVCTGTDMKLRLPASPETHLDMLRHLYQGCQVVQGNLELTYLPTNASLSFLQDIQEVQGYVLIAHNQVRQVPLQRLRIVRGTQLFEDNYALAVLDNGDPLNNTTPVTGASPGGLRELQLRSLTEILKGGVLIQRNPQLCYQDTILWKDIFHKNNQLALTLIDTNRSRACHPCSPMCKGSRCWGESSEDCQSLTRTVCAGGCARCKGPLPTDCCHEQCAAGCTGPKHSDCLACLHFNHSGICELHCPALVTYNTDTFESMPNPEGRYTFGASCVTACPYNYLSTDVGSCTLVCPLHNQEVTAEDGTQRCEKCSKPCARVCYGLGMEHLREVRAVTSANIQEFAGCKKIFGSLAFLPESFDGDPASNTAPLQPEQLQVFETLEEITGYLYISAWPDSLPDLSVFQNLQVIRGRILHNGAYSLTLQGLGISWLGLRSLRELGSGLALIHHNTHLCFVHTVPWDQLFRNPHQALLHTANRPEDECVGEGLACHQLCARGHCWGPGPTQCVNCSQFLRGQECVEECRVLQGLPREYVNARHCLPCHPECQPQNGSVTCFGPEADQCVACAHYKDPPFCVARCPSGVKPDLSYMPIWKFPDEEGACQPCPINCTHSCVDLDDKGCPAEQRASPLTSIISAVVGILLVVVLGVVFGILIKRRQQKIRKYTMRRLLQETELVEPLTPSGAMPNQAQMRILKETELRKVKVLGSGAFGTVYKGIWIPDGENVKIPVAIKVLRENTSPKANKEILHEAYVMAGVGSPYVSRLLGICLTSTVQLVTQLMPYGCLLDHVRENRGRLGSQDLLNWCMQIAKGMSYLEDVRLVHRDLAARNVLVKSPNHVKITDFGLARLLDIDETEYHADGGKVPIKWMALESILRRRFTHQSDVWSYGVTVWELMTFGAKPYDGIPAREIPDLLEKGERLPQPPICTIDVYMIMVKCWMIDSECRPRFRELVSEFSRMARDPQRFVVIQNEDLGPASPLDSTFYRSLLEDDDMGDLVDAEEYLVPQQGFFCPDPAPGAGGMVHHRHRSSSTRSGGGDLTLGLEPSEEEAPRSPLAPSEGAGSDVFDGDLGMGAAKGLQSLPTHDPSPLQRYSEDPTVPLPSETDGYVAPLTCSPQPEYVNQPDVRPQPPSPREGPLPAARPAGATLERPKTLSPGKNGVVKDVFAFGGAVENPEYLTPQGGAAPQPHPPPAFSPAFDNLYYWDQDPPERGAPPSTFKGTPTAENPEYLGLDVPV
# Assay: Inhibition of HER2 D769H mutant (unknown origin) incubated for 120 mins in presence of 33P-ATP by P81 ion exchange cellulose chromatography
# Conditions: not given
row,IC50 [nM],Structure (SMILES)
1,6.65,CCOc1cc2ncc(C#N)c(Nc3ccc(OCc4ccccn4)c(Cl)c3)c2cc1NC(=O)/C=C/[C@H]1CCCN1C [PYROTINIB]

# Target: Receptor tyrosine-protein kinase erbB-2 (Homo sapiens, UniProt P04626, V777L)
# Assay: Inhibition of HER2 V777L mutant (unknown origin) incubated for 120 mins in presence of 33P-ATP by P81 ion exchange cellulose chromatography
# Conditions: not given
row,IC50 [nM],Structure (SMILES)
1,3.91,CCOc1cc2ncc(C#N)c(Nc3ccc(OCc4ccccn4)c(Cl)c3)c2cc1NC(=O)/C=C/[C@H]1CCCN1C [PYROTINIB]

# System: NCI-N87
# Assay: Antitumor activity against human NCI-N87 cells xenografted in BALB/c nude mouse assessed as tumor growth inhibition at 20 mg/kg/day, po administered once daily for 21 days relative to control
# Type: functional
# Conditions: NCI-N87, 504 h, time 21 day, read-out: TGI
row,Structure (SMILES),inhibition in vivo at 20 mg/kg/day [%]
1,CCOc1cc2ncc(C#N)c(Nc3ccc(OCc4ccccn4)c(Cl)c3)c2cc1NC(=O)/C=C/[C@H]1CCCN1C [PYROTINIB],113

# System: BT-474
# Assay: Antitumor activity against human BT-474 cells xenografted in BALB/c nude mouse assessed as tumor growth inhibition at 20 mg/kg/day, po administered once daily for 21 days relative to control
# Type: functional
# Conditions: BT-474, 504 h, time 21 day, read-out: TGI
row,Structure (SMILES),inhibition in vivo at 20 mg/kg/day [%]
1,CCOc1cc2ncc(C#N)c(Nc3ccc(OCc4ccccn4)c(Cl)c3)c2cc1NC(=O)/C=C/[C@H]1CCCN1C [PYROTINIB],118

# Target: Epidermal growth factor receptor (Homo sapiens, UniProt P00533)
# Assay: Inhibition of EGFR (unknown origin)
# Conditions: not given
row,IC50 [nM],Structure (SMILES)
1,449,Cc1cc(Nc2ncnc3ccc(NC4=NC(C)(C)CO4)cc23)ccc1Oc1ccn2ncnc2c1 [TUCATINIB]

# System: BaF3
# Assay: Antitumor activity against mouse BaF3 cells harbouring HER2 A775_G776insYVMA mutant xenografted in BALB/c nude mouse assessed as tumor growth inhibition at 20 mg/kg, po qd measured for 13 days relative to control
# Type: functional
# Conditions: BaF3, 312 h, time 13 day, read-out: TGI
row,Structure (SMILES),inhibition in vivo at 20 mg/kg [%]
1,CCOc1cc2ncc(C#N)c(Nc3ccc(OCc4ccccn4)c(Cl)c3)c2cc1NC(=O)/C=C/[C@H]1CCCN1C [PYROTINIB],55

# System: BaF3
# Assay: Antiproliferative activity against mouse BaF3 cells harbouring HER2 […] mutant assessed as inhibition of cell growth incubated for 72 hrs by Celltiter-Glo assay
# Type: functional, cell-based
# Conditions: BaF3, 72 h
row,IC50 [nM],Structure (SMILES)
1,15,CCOc1cc2ncc(C#N)c(Nc3ccc(OCc4ccccn4)c(Cl)c3)c2cc1NC(=O)/C=C/[C@H]1CCCN1C [PYROTINIB]

# Target: Receptor tyrosine-protein kinase erbB-2 (Homo sapiens, UniProt P04626, D769Y)
# Sequence (P04626 23-1255 D769Y limits assumed): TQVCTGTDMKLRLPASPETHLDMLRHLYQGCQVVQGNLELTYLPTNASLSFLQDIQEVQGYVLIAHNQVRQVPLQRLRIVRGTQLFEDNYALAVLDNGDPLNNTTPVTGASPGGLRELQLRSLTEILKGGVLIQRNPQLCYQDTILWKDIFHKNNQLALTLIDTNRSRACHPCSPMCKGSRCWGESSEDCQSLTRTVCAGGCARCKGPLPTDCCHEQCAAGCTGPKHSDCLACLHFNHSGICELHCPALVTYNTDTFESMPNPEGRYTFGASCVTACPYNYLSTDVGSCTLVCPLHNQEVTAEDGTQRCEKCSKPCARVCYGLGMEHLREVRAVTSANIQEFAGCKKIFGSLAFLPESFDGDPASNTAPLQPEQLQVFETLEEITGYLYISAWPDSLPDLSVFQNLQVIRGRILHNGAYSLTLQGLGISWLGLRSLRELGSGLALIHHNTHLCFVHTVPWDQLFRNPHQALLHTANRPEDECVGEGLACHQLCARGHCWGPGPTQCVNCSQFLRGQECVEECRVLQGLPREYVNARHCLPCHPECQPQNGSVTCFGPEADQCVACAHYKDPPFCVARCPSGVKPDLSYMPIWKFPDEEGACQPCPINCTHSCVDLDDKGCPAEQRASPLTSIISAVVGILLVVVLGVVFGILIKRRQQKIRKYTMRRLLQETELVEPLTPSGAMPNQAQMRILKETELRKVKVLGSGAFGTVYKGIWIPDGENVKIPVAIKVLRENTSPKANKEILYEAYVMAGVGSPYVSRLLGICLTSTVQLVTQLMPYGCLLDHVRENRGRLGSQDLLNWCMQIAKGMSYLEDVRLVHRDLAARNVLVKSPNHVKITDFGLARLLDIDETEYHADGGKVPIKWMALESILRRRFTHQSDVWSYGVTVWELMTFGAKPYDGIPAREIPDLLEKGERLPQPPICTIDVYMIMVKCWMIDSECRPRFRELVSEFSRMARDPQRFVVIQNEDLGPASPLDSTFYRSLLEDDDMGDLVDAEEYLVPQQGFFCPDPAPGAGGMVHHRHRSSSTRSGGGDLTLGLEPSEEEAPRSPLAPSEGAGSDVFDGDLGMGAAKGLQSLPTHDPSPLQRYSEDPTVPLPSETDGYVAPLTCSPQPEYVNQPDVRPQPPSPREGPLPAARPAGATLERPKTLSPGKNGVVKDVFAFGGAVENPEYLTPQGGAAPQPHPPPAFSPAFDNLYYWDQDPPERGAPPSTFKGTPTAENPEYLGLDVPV
# Assay: Inhibition of HER2 D769Y mutant (unknown origin) incubated for 120 mins in presence of 33P-ATP by P81 ion exchange cellulose chromatography
# Conditions: not given
row,IC50 [nM],Structure (SMILES)
1,57.4,CCOc1cc2ncc(C#N)c(Nc3ccc(OCc4ccccn4)c(Cl)c3)c2cc1NC(=O)/C=C/[C@H]1CCCN1C [PYROTINIB]

# — ChEMBL document CHEMBL5154811, “Discovery of SPH5030, a Selective, Potent, and Irreversible Tyrosine Kinase Inhibitor for HER2-Amplified and HER2-Mutant Cancer Treatment” (J Med Chem, 2022)
